The source of these data is PubChem BioAssay (NCI).

Some test systems named below: SF-539 CNS; MALME-3M melanoma; NCI-H522 lung; RXF 393 renal; NCI-H460 lung; OVCAR-8 ovarian; CCRF-CEM leukemia; UACC-257 melanoma.
What all share (test): inhibition of tumour cell growth, NCI panel, 48 h

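Method: 48-hour compound exposure of cells in 96-well plates, five concentrations, linear interpolation of endpoints. Abbreviation: GI50, concentration required for 50% inhibition of growth. The concentration for full growth arrest is given as TGI.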 Bounds are passed on as bounds.

In the case of `COc1ccc(-c2nc3sc4c(c3c(=O)[nH]2)CCCCCC4)cc1`, the GI50 in the experiment on SF-539 CNS is 2.56 µM; in the experiment on MALME-3M melanoma it was 3.72 µM; with NCI-H522 lung, 2.55 µM; with RXF 393 renal, 1.62 µM; in the experiment on NCI-H460 lung, 2.26 µM; in the experiment on OVCAR-8 ovarian it was 3.9 µM. Besides, the GI50 with CCRF-CEM leukemia and with UACC-257 melanoma was greater than 33.2 µM each time. Besides, the TGI in the experiment with SF-539 CNS was greater than 33.2 µM; with MALME-3M melanoma, greater than 33.2 µM; with NCI-H522 lung, greater than 33.2 µM; in the experiment on RXF 393 renal, 10.4 µM; in the experiment on NCI-H460 lung, greater than 33.2 µM; in the experiment on OVCAR-8 ovarian, greater than 33.2 µM. The TGI in the experiment on CCRF-CEM leukemia and in the experiment on UACC-257 melanoma was greater than 33.2 µM throughout.

With `CC1(C)CC(=O)c2c(C(F)(F)F)nn(-c3ccc(C(N)=O)c(NC4CCC(OC(=O)CN)CC4)c3)c2C1` (stereo not drawn), the GI50 with SF-539 CNS was 0.364 µM; in the experiment on MALME-3M melanoma, 0.0468 µM; in the experiment on NCI-H522 lung it was 0.0387 µM; in the experiment with RXF 393 renal, 0.157 µM; in the experiment with NCI-H460 lung, 0.0502 µM; with OVCAR-8 ovarian, 0.0593 µM. Moreover, the GI50 with CCRF-CEM leukemia is 0.0339 µM; with UACC-257 melanoma it was 0.029 µM. For the same molecule, the TGI in the experiment with SF-539 CNS was 20.8 µM; in the experiment on MALME-3M melanoma, greater than 100 µM; in the experiment on NCI-H522 lung it was 20.1 µM; in the experiment with RXF 393 renal it was 28.8 µM; in the experiment on NCI-H460 lung, greater than 100 µM; with OVCAR-8 ovarian, greater than 100 µM. Further, the results for the TGI with CCRF-CEM leukemia and with UACC-257 melanoma were greater than 100 µM and 0.0972 µM, respectively.

Regarding `Cc1ccccc1[P+](Cc1ccccc1)(c1ccccc1)c1ccccc1`, the GI50 in the experiment with SF-539 CNS is 2.34 µM; in the experiment with NCI-H522 lung, 2.09 µM; with RXF 393 renal, 4.35 µM; with NCI-H460 lung it was 2.23 µM; with OVCAR-8 ovarian it was 1.92 µM; in the experiment on CCRF-CEM leukemia it was 2.1 µM. In the experiment on UACC-257 melanoma, the GI50 was 0.623 µM. Also, the TGI with SF-539 CNS amounted to 24.7 µM; with NCI-H522 lung it was 10.5 µM; with RXF 393 renal it was 51.8 µM; with NCI-H460 lung, 10.7 µM; with OVCAR-8 ovarian, 13.2 µM; in the experiment on CCRF-CEM leukemia, 33.5 µM. This molecule displayed a TGI in the experiment with UACC-257 melanoma of 4.23 µM.

Take `O=C1/C(=C\c2c[nH]c3ccccc23)c2ccccc2N1c1c(Cl)cccc1Cl`: the GI50 with SF-539 CNS is 1.59 µM; with NCI-H522 lung, 1.81 µM; with RXF 393 renal, 2.02 µM; in the experiment with NCI-H460 lung, 1.66 µM; in the experiment with OVCAR-8 ovarian it was 3.26 µM; with CCRF-CEM leukemia it was 2.42 µM. Also, the GI50 with UACC-257 melanoma was 2.34 µM. Besides, the TGI is 3.01 µM in the experiment with SF-539 CNS; 3.56 µM in the experiment on NCI-H522 lung; 3.92 µM in the experiment with RXF 393 renal; 3.37 µM in the experiment with NCI-H460 lung; 11.2 µM with OVCAR-8 ovarian; 7.23 µM in the experiment on CCRF-CEM leukemia. The TGI in the experiment with UACC-257 melanoma was found to be 4.61 µM.

For `CCCCCCCCCCC(C(=O)O)C1(C(=O)O)CCC(=O)O1` (stereo not drawn), the TGI in the experiment with NCI-H522 lung, in the experiment on RXF 393 renal, with NCI-H460 lung, with OVCAR-8 ovarian, in the experiment on CCRF-CEM leukemia and in the experiment with UACC-257 melanoma was greater than 100 µM throughout.

For `CN1CCC(n2cnc(-c3ccc(F)cc3)c2-c2ccnc(NCCO)n2)CC1`, the GI50 in the experiment on SF-539 CNS was greater than 25 µM; with MALME-3M melanoma, 23.8 µM; in the experiment on NCI-H522 lung, greater than 17.7 µM; with RXF 393 renal, greater than 25 µM; in the experiment on NCI-H460 lung, 9.54 µM; in the experiment with OVCAR-8 ovarian, 18.4 µM. Further, the GI50 in the experiment with CCRF-CEM leukemia and in the experiment with UACC-257 melanoma was greater than 25 µM in each case. Besides, the TGI with SF-539 CNS, in the experiment on MALME-3M melanoma, in the experiment with NCI-H522 lung, in the experiment with RXF 393 renal, in the experiment on NCI-H460 lung and in the experiment with OVCAR-8 ovarian was greater than 25 µM each time. The TGI in the experiment with CCRF-CEM leukemia and with UACC-257 melanoma was greater than 25 µM in each case.

Turning to `CC#C[C@]1(O)CC[C@H]2[C@@H]3CCC4=CC(=O)CCC4=C3[C@@H](c3ccc4c(c3)OCO4)C[C@@]21C`, the GI50 with SF-539 CNS was 89.2 µM; in the experiment on MALME-3M melanoma, 173 µM; in the experiment with NCI-H522 lung, 110 µM; with RXF 393 renal it was 43.8 µM; in the experiment on NCI-H460 lung, 108 µM; in the experiment with OVCAR-8 ovarian, 141 µM. For the same molecule, the GI50 with CCRF-CEM leukemia was 103 µM; in the experiment with UACC-257 melanoma, 119 µM. Moreover, the TGI in the experiment on SF-539 CNS was 274 µM; with MALME-3M melanoma, 556 µM; with NCI-H522 lung, 460 µM; in the experiment with RXF 393 renal, 197 µM; in the experiment on NCI-H460 lung, 305 µM; in the experiment on OVCAR-8 ovarian it was 783 µM. Further, the TGI in the experiment on CCRF-CEM leukemia was 619 µM; in the experiment on UACC-257 melanoma, 410 µM.

With `O=c1cc(-c2ccccc2)[nH]c2ccccc12`, the GI50 in the experiment with SF-539 CNS was 0.412 µM; in the experiment on MALME-3M melanoma, greater than 100 µM; in the experiment on NCI-H522 lung, 0.439 µM; with RXF 393 renal, 0.996 µM; in the experiment on NCI-H460 lung, 0.398 µM; with OVCAR-8 ovarian, 4.18 µM. The GI50 is 0.738 µM in the experiment with CCRF-CEM leukemia and greater than 79.3 µM with UACC-257 melanoma. The TGI was 9.66 µM in the experiment with SF-539 CNS; greater than 100 µM with MALME-3M melanoma; greater than 46.7 µM in the experiment on NCI-H522 lung; 9.68 µM in the experiment on RXF 393 renal; greater than 50.9 µM with NCI-H460 lung; greater than 100 µM in the experiment on OVCAR-8 ovarian. Moreover, the TGI in the experiment with CCRF-CEM leukemia and with UACC-257 melanoma was greater than 100 µM each time.

`Cc1ccc(-c2cn3ccnc3c(-c3ccc(Cl)cc3)n2)cc1`: the GI50 was 0.0422 µM with SF-539 CNS; 1.98 µM with NCI-H522 lung; 2.16 µM in the experiment with RXF 393 renal; 0.0916 µM in the experiment with NCI-H460 lung; 1.43 µM with OVCAR-8 ovarian; 0.122 µM in the experiment on CCRF-CEM leukemia. Moreover, the TGI in the experiment on SF-539 CNS was 1.35 µM; with NCI-H522 lung it was greater than 8.22 µM; in the experiment with RXF 393 renal, greater than 100 µM; in the experiment with NCI-H460 lung it was 13.1 µM; with OVCAR-8 ovarian it was 34.2 µM; in the experiment on CCRF-CEM leukemia it was greater than 100 µM. Further, the TGI in the experiment with UACC-257 melanoma is greater than 100 µM.

With `O=C1CC(c2ccc(O)cc2)C2(O1)C(=O)OC(C(O)CO)C2O` (stereo not drawn), the TGI in the experiment on SF-539 CNS, in the experiment on MALME-3M melanoma, in the experiment with RXF 393 renal, with OVCAR-8 ovarian, in the experiment with CCRF-CEM leukemia and in the experiment on UACC-257 melanoma was greater than 100 µM throughout.
